How the values were obtained:
Type in all cases: cell-based
DU-145 = experiment: Inhibition of cell growth by colorimetric SRB assay, DU-145; conditions: Homo sapiens, DU-145, 48 hours exposure; for CC50: cell killing, read-out: LC50 (the source's name); for IC (total growth inhibition): read-out: TGI
Description: (§1) The finality of these assays is to interrupt the growth of a “in vitro” tumor cell culture by means a continued exhibition of the cells to the sample to be testing.
(§2) Inhibition of Cell Growth by Colorimetric Assay.
(§3) A colorimetric type of assay, using sulforhodamine B (SRB) reaction has been adapted for a quantitative measurement of cell growth and viability (following the technique described by P. A. Skehan, et al., J. Natl. CancerInst. 1990, 82, 1107-1112).
(§4) This form of assay employs 96 well cell culture microplates of 9 mm diameter (T. Mosmann et al., J. of Immuological Methods 1983, 65, 55-63; G. T. Faircloth et al., J. of Tissue and Culture Methods 1988, 11, 201-205). Most of the cell lines are obtained from American Type Culture Collection (ATCC) derived from different human cancer types.
(§5) Cells are maintained in RPMI 1640 10% FBS, supplemented with 0.1 g/L penicillin and 0.1 g/L streptomycin sulfate and then incubated at 37° C., 5% CO2 and 98% humidity. For the experiments, cells were harvested from subconfluent cultures using trypsin and resuspended in fresh medium before plating.
(§6) Cells are seeded in 96 well microtiter plates, at 5×10^3 cells per well in aliquots of 195 μL medium, and they are allowed to attach to the plate surface by growing in drug free medium for 18 hours. Afterward, samples are added in aliquots of 5 μL in a ranging from 10 to 10^−8 μg/mL, dissolved in DMSO/EtOH/PBS (0.5:0.5:99). After 48 hours exposure, the antitumor effect are measured by the SRB methodology: cells are fixed by adding 50 μL of cold 50% (wt/vol) trichloroacetic acid (TCA) and incubated for 60 minutes at 4° C. Plates are washed with deionizer water and dried. One hundred μl of SRB solution (0.4% wt/vol in 1% acetic acid) is added to each microliter well and incubated for 10 minutes at room temperature. Unbound SRB is removed by washing with 1% acetic acid. Plates are air dried and bound stain is solubilized with Tris buffer. Optical densities are read on a automated spectrophotometric plate reader at a single wavelength of 490 nm.
(§7) The values for mean +/−SD of data from triplicate wells are calculated. Some parameters for cellular responses can be calculated: GI=growth inhibition, TGI=total growth inhibition (cytostatic effect) and LC=cell killing (cytotoxic effect).

LNCaP = experiment: Inhibition of cell growth by colorimetric SRB assay, LN-caP; conditions: Homo sapiens, LN-caP, 48 hours exposure; for CC50: cell killing, read-out: LC50 (the source's name); for IC (total growth inhibition): read-out: TGI
Description: as §1, §2, §3, §4, §5, §6, §7

IGROV = experiment: Inhibition of cell growth by colorimetric SRB assay, IGROV; conditions: Homo sapiens, 48 hours exposure; for CC50: cell killing, read-out: LC50 (the source's name); for IC (total growth inhibition): read-out: TGI
Description: as §1, §2, §3, §4, §5, §6, §7

IGROV-ET = experiment: Inhibition of cell growth by colorimetric SRB assay, IGROV-ET; conditions: Homo sapiens, IGROV-ET, 48 hours exposure; for CC50: cell killing, read-out: LC50 (the source's name); for IC (total growth inhibition): read-out: TGI
Description: as §1, §2, §3, §4, §5, §6, §7

SK-MEL-28 = experiment: Inhibition of cell growth by colorimetric SRB assay, MEL-28; conditions: Homo sapiens, SK-MEL-28, MEL-28, 48 hours exposure; for CC50: cell killing, read-out: LC50 (the source's name); for IC (total growth inhibition): read-out: TGI
Description: as §1, §2, §3, §4, §5, §6, §7

A-549 = experiment: Inhibition of cell growth by colorimetric SRB assay, A-549; conditions: Homo sapiens, A549, A-549, 48 hours exposure; for CC50: cell killing, read-out: LC50 (the source's name); for IC (total growth inhibition): read-out: TGI
Description: as §1, §2, §3, §4, §5, §6, §7

K-562 = experiment: Inhibition of cell growth by colorimetric SRB assay, K-562; conditions: Homo sapiens, K562, K-562, 48 hours exposure; for CC50: cell killing, read-out: LC50 (the source's name); for IC (total growth inhibition): read-out: TGI
Description: as §1, §2, §3, §4, §5, §6, §7

PANC-1 = experiment: Inhibition of cell growth by colorimetric SRB assay, PANC-1; conditions: Homo sapiens, PANC-1, 48 hours exposure; for CC50: cell killing, read-out: LC50 (the source's name); for IC (total growth inhibition): read-out: TGI
Description: as §1, §2, §3, §4, §5, §6, §7

HT-29 = experiment: Inhibition of cell growth by colorimetric SRB assay, HT-29; conditions: Homo sapiens, HT-29, 48 hours exposure; for CC50: cell killing, read-out: LC50 (the source's name); for IC (total growth inhibition): read-out: TGI
Description: as §1, §2, §3, §4, §5, §6, §7

LoVo = experiment: Inhibition of cell growth by colorimetric SRB assay, LOVO; conditions: Homo sapiens, LOVO, 48 hours exposure; for LC50: cell killing, read-out: LC50; for IC (total growth inhibition): read-out: TGI
Description: as §1, §2, §3, §4, §5, §6, §7

LoVo-Dox = experiment: Inhibition of cell growth by colorimetric SRB assay, LOVO-DOX; conditions: Homo sapiens, LOVO-DOX, 48 hours exposure; for LC50 (concentration for 50% cell killing): read-out: LC50; for IC (total growth inhibition): read-out: TGI
Description: as §1, §2, §3, §4, §5, §6, §7

HeLa = experiment: Inhibition of cell growth by colorimetric SRB assay, HELA; conditions: Homo sapiens, HELA, 48 hours exposure; for CC50: cell killing, read-out: LC50 (the source's name); for IC (total growth inhibition): read-out: TGI
Description: as §1, §2, §3, §4, §5, §6, §7

HeLa-APL = experiment: Inhibition of cell growth by colorimetric SRB assay, HELA-APL; conditions: Homo sapiens; for GI50 / IC (total growth inhibition): 48 h; for IC (total growth inhibition): read-out: TGI; for CC50: HELA-APL, 48 hours exposure, cell killing, read-out: LC50 (the source's name)
Description: as §1, §2, §3, §4, §5, §6, §7

With C/C=C\[C@H](C)[C@H]1OC1(C)[C@@H](O[Si](C)(C)C(C)(C)C)[C@@H](COC(C)=O)C(=O)[C@H](CO)[C@H](O)CC(=O)CC (some centres unmarked) [Compound 43] the GI50 (DU-145) was 4.99 µM, the CC50 (DU-145) was 18.7 µM and the IC (total growth inhibition) (DU-145) was 9.66 µM. It also gave a GI50 (LNCaP) of 3.78 µM, a CC50 (LNCaP) of 15.4 µM and an IC (total growth inhibition) (LNCaP) of 7.62 µM. For the same molecule, the GI50 (IGROV) was 4.94 µM, the CC50 (IGROV) was 18.9 µM and the IC (total growth inhibition) (IGROV) was 9.99 µM. The GI50 (IGROV-ET) was 4.52 µM, the CC50 (IGROV-ET) was 17.8 µM and the IC (total growth inhibition) (IGROV-ET) was 8.96 µM. It also gave a GI50 (SK-MEL-28) of 3.9 µM, a CC50 (SK-MEL-28) of 13.4 µM and an IC (total growth inhibition) (SK-MEL-28) of 7.24 µM. The GI50 (A-549) was 4.44 µM, the CC50 (A-549) was 16.2 µM and the IC (total growth inhibition) (A-549) was 8.49 µM. The GI50 (K-562) was 3.59 µM, the CC50 (K-562) was 16.5 µM and the IC (total growth inhibition) (K-562) was 7.72 µM. For the same molecule, the GI50 (PANC-1) was 3.73 µM, the CC50 (PANC-1) was 13.2 µM and the IC (total growth inhibition) (PANC-1) was 7.02 µM. It also gave a GI50 (HT-29) of 4.24 µM, a CC50 (HT-29) of 16.2 µM and an IC (total growth inhibition) (HT-29) of 8.28 µM. It also gave a GI50 (LoVo) of 4.03 µM, an LC50 (LoVo) of 18.9 µM and an IC (total growth inhibition) (LoVo) of 9.06 µM. For the same molecule, the GI50 (LoVo-Dox) was 3.31 µM, the LC50 (concentration for 50% cell killing) (LoVo-Dox) was 15.7 µM and the IC (total growth inhibition) (LoVo-Dox) was 7.21 µM. For the same molecule, the GI50 (HeLa) was 4.37 µM, the CC50 (HeLa) was 16.4 µM and the IC (total growth inhibition) (HeLa) was 8.47 µM. The GI50 (HeLa-APL) was 4.27 µM, the IC (total growth inhibition) (HeLa-APL) was 9.34 µM and the CC50 (HeLa-APL) was 18.9 µM.
Work on C/C=C\[C@H](C)[C@H]1OC1(C)[C@@H](O[Si](C)(C)C(C)(C)C)[C@@H](COC(C)=O)C(=O)[C@H](COC(C)=O)[C@H](O)CC(=O)CC (some centres unmarked) [Compound 44] yielded a GI50 (DU-145) of 4.99 µM, a CC50 (DU-145) of 17.5 µM and an IC (total growth inhibition) (DU-145) of 10.4 µM. For the same molecule, the GI50 (LNCaP) was 3.77 µM, the CC50 (LNCaP) was 16.6 µM and the IC (total growth inhibition) (LNCaP) was 7.88 µM. For the same molecule, the GI50 (IGROV) was 4.13 µM, the CC50 (IGROV) was 14.2 µM and the IC (total growth inhibition) (IGROV) was 7.67 µM. For the same molecule, the GI50 (IGROV-ET) was 4.15 µM, the CC50 (IGROV-ET) was 15.8 µM and the IC (total growth inhibition) (IGROV-ET) was 8.09 µM. The GI50 (SK-MEL-28) was 3.84 µM, the CC50 (SK-MEL-28) was 12.6 µM and the IC (total growth inhibition) (SK-MEL-28) was 6.96 µM. For the same molecule, the GI50 (A-549) was 4.01 µM, the CC50 (A-549) was 15.4 µM and the IC (total growth inhibition) (A-549) was 7.87 µM. The GI50 (K-562) was 6.1 µM, the CC50 (K-562) was 17.5 µM and the IC (total growth inhibition) (K-562) was 11.4 µM. For the same molecule, the GI50 (PANC-1) was 3.73 µM, the CC50 (PANC-1) was 13.8 µM and the IC (total growth inhibition) (PANC-1) was 7.2 µM. For the same molecule, the GI50 (HT-29) was 6.22 µM, the CC50 (HT-29) was 17 µM and the IC (total growth inhibition) (HT-29) was 17.5 µM. For the same molecule, the GI50 (LoVo) was 4.05 µM, the LC50 (LoVo) was 17.5 µM and the IC (total growth inhibition) (LoVo) was 8.99 µM. For the same molecule, the GI50 (LoVo-Dox) was 4.27 µM, the LC50 (concentration for 50% cell killing) (LoVo-Dox) was 17.5 µM and the IC (total growth inhibition) (LoVo-Dox) was 8.9 µM. The GI50 (HeLa) was 3.91 µM, the CC50 (HeLa) was 14.7 µM and the IC (total growth inhibition) (HeLa) was 7.59 µM. The GI50 (HeLa-APL) was 3.77 µM, the IC (total growth inhibition) (HeLa-APL) was 9.83 µM and the CC50 (HeLa-APL) was 17.5 µM.
C/C=C\[C@H](C)[C@H]1OC1(C)[C@@H](O[Si](C)(C)C(C)(C)C)[C@@H](COC(C)=O)C(=O)[C@H](COC(C)=O)[C@@H](CC(=O)CC)OC(C)=O (some centres unmarked) [Compound 45] showed a GI50 (DU-145) of 16.3 µM, a CC50 (DU-145) of 16.3 µM and an IC (total growth inhibition) (DU-145) of 16.3 µM. The GI50 (LNCaP) was 8.34 µM, the CC50 (LNCaP) was 16.3 µM and the IC (total growth inhibition) (LNCaP) was 16.3 µM. The GI50 (IGROV) was 16.3 µM, the CC50 (IGROV) was 16.3 µM and the IC (total growth inhibition) (IGROV) was 16.3 µM. The GI50 (IGROV-ET) was 15.8 µM, the CC50 (IGROV-ET) was 16.3 µM and the IC (total growth inhibition) (IGROV-ET) was 16.3 µM. It also gave a GI50 (SK-MEL-28) of 16.3 µM, a CC50 (SK-MEL-28) of 16.3 µM and an IC (total growth inhibition) (SK-MEL-28) of 16.3 µM. For the same molecule, the GI50 (A-549) was 16.3 µM, the CC50 (A-549) was 16.3 µM and the IC (total growth inhibition) (A-549) was 16.3 µM. It also gave a GI50 (K-562) of 16.3 µM, a CC50 (K-562) of 16.3 µM and an IC (total growth inhibition) (K-562) of 16.3 µM. The GI50 (PANC-1) was 8.24 µM, the CC50 (PANC-1) was 16.3 µM and the IC (total growth inhibition) (PANC-1) was 16.3 µM. It also gave a GI50 (HT-29) of 16.3 µM, a CC50 (HT-29) of 16.3 µM and an IC (total growth inhibition) (HT-29) of 16.3 µM. The GI50 (LoVo) was 8.26 µM, the LC50 (LoVo) was 16.3 µM and the IC (total growth inhibition) (LoVo) was 16.3 µM. For the same molecule, the GI50 (LoVo-Dox) was 10.5 µM, the LC50 (concentration for 50% cell killing) (LoVo-Dox) was 16.3 µM and the IC (total growth inhibition) (LoVo-Dox) was 16.3 µM. For the same molecule, the GI50 (HeLa) was 16.3 µM, the CC50 (HeLa) was 16.3 µM and the IC (total growth inhibition) (HeLa) was 16.3 µM. For the same molecule, the GI50 (HeLa-APL) was 16.3 µM and the CC50 (HeLa-APL) was 16.3 µM.

Reference: patent US7521478B2, “Total synthesis of myriaporones” (Pharma Mar, S.A.U., priority 2002, dated 2009)
